Source: patent US9725459B2, “3-oxo-tetrahydro-furo[3,2-B]pyrrol-4(5H)-yl) derivatives I” (GRÜNENTHAL GMBH, priority 2014, dated 2017)

What was measured:
human cathepsin S (CatS) = human cathepsin S (CatS) (Homo sapiens (Human), UniProt P25774); experiment: CatS functional enzyme assay; assay type: biochemical; details: for Selectivity Ki(hCatS)/Ki(hCatK): ratio Ki(hCatS)/Ki(hCatK); for Ki: recombinant human CatS, substrate Z-VVR-AMC 5 μM, pH 6.5, Ki by Cheng Prusoff equation, read-out: hCatS, Ki
Outline: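 Recombinant human enzymes were incubated 10 min at RT with AMC substrate: CatS 0.0007 mU/well with Z-VVR-AMC 5 µM; CatK 0.00175 mU/well with Z-FR-AMC 40 µM; CatL 0.000874 mU/well with Z-VVR-AMC 40 µM. Fluorescence gave IC50, converted to Ki by Cheng-Prusoff.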

human cathepsin L (CatL) = human cathepsin L (CatL) (Homo sapiens (Human), UniProt P07711); experiment: CatL functional enzyme assay; assay type: biochemical; details: read-out: hCatL, inhibition [%] at 31.6 μM
[1] = Caco 2 permeability assay; assay type: in vitro ADME, human; details: human; for efflux ratio at 120 min, 10 μM: pH 7.4, efflux ratio ER=Peff(B−A)/Peff(A−B), Caco-2; for Papp A→B at 120 min, 10 μM / Papp B→A at 120 min, 10 μM: Caco-2 monolayer, HBSS pH 7.4; for Papp A→B at 120 min, 10 μM: apical to basolateral, read-out: Peff a − b; for Papp B→A at 120 min, 10 μM: basolateral to apical, read-out: Peff b − a
Method: (§1) The intestinal permeability of a potential drug is assessed by in vitro cell culture from a human colon adenoma-carcinoma derived cell line. This cell line expresses some of the systems considered relevant to active drug transport e.g. […] (P-gp). In vitro cellular permeability assays can reflect both, permeation by passive diffusion and active transport (uptake and efflux). The rate of permeation across monolayers of Caco 2 cells were correlated to the extents of absorption (Hidalgo et al., Gastroenterology 1989; 96(3):736 49). Original methodology was developed by Artursson and Taveli (Drug Bioavailability. Series: Methods and Principles in Medicinal Chemistry. Weinheim: Wiley-VCH Verlag; 2003; p. 72-89).
(§2) The assay is performed as a trans-flux experiment. Caco-2 cells (cells from ATCC) are seeded and grown to confluence to form a monolayer (ca. 3 weeks, between passage numbers 40-60) on a readily permeable support in a plastic well supported within a chamber (Millipore Multiscreen Caco-2 plates, at a cell density of ca. 1×10^5 cells/cm^2). Cells are cultured for 20 days in DMEM and media is changed every two or three days. The cells form tight junctions, so paracellular diffusion is not possible, and grow in a polarised manner, efflux transporters (P-gp) are expressed on their apical surfaces facing the culture medium, rather than at their basolateral surfaces through which they are attached to the support membrane. A low concentration of a test compound is added to the upper (apical: A) or lower (basolateral: B) chambers, and the rate of loss from the donor compartment, and the rate of transfer to the acceptor chamber, is determined by LC-MS/MS. Consequently the influence of efflux transporters expressed in the apical membrane can be determined by comparing permeability rates from A to B and B to A. Assays are generally performed in gently shaken protein-free buffer.
(§3) On ca. day 20 the permeability study is performed. The monolayers are prepared by rinsing both basolateral and apical surfaces twice with Hanks Balanced Salt Solution (HBSS) pH 7.4 buffer with HEPES (25 mM) and 4.45 mM glucose at 37° C. Cells are then incubated with HBSS in both apical and basolateral compartments for 40 min to stabilise physiological parameters. Incubations are carried out in an atmosphere of 5% CO2 with a rel. humidity of 95% at 37° C.
(§4) HBSS is next removed from the apical compartment and replaced with test compound dosing solution. Test compound dosing solutions are made by diluting 10 mM test compound in DMSO with HBSS to give a final test compound concentration of 10 μM (final DMSO concentration 1%).
(§5) The fluorescent integrity marker lucifer yellow is also included in the dosing solution. Analytical standards are made from dosing solutions. The apical compartment inserts are then placed into ‘companion’ plates containing fresh HBSS. For basolateral to apical (B-A) permeability determination the experiment is initiated by replacing buffer in the inserts then placing them in companion plates containing dosing solutions. At 120 min the companion plate is removed and apical and basolateral samples diluted for analysis by LC-MS/MS. Test compound permeability is assessed in duplicate. […] Talinolol (a known P-gp substrate 2) is also included as a control compound to assess whether functional P-gp is present in the Caco-2 cell monolayer.
(§6) Test and control compounds are quantified by LC-MS/MS cassette analysis using a 5-point calibration with appropriate dilution of the samples. The starting concentration (C0) and experimental recovery are calculated from both apical and basolateral compartment concentrations.
(§7) Apparent permeability (Papp), used interchangeably with effective permeability (Peff) and efflux ratio (ER) are generated for each compound and reference compound. The permeability coefficient for each compound (Papp) is calculated from the following equation: Peff=dQ/dt/C0×A […]

Caco-2 cells = experiment: Caco 2 permeability assay; assay type: in vitro ADME, human; details: Caco-2, verbal assessment
Method: as §1, §2, §3, §4, §5, §6, §7

human cathepsin K (CatK) = human cathepsin K (CatK) (Homo sapiens (Human), UniProt P43235); experiment: CatK functional enzyme assay; assay type: biochemical; details: recombinant human CatK, substrate Z-FR-AMC 40 μM, pH 5.5; Ki by Cheng Prusoff equation; read-out: hCatK, Ki
Outline: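 Recombinant human enzymes in 50 mM NaOAc, 10 mM EDTA, 1 mM DTT, 0.01% Triton X-100, pH 5.5, 10 min at RT. CatK: 0.00175 mU/well with 40 μM Z-FR-AMC; CatL: 0.000874 mU/well with 40 μM Z-VVR-AMC. AMC fluorescence read; IC50 converted to Ki via Cheng–Prusoff.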

human cathepsin K (CatK), sequence (P43235 115-329): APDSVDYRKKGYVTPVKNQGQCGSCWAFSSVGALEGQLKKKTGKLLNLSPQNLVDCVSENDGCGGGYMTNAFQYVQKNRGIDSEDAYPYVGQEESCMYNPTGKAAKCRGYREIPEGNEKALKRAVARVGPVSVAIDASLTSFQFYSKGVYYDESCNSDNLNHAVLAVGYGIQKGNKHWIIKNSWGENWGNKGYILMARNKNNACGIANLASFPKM
human cathepsin L (CatL), sequence (P07711 114-333): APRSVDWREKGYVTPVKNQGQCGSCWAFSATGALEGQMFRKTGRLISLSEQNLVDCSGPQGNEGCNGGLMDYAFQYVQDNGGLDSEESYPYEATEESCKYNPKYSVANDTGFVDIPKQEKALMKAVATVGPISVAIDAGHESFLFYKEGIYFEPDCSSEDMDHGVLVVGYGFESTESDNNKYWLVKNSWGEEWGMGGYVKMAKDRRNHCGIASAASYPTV
human cathepsin S (CatS), sequence (P25774 115-331): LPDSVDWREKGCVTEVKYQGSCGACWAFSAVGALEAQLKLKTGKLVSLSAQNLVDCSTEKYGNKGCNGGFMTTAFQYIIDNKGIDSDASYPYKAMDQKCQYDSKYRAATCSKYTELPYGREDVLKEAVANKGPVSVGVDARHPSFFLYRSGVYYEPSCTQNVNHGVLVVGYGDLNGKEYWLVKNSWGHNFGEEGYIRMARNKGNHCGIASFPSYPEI

| Selectivity Ki(hCatS)/Ki(hCatK) (human cathepsin S (CatS)) | Ki (human cathepsin S (CatS)) [nM] | inhibition at 31.6 µM (human cathepsin L (CatL)) [%] | efflux ratio at 120 min, 10 μM [1] | Papp A→B at 120 min, 10 μM [1] [×10⁻⁶ cm/s] | Papp B→A at 120 min, 10 μM [1] [×10⁻⁶ cm/s] | A to B permeability (in words) (Caco-2 cells) | B to A permeability (in words) (Caco-2 cells) | efflux ratio (ER) (in words) (Caco-2 cells) | Ki (human cathepsin K (CatK)) [nM] | SMILES |
| --- | --- | --- | --- | --- | --- | --- | --- | --- | --- | --- |
| 1.2 | 21 | 32 | 7.5 | 1.67 | 12.5 | moderate | good | intermediate/low | 17 | O=C(N[C@H](C(=O)N1C[C@H](Cl)[C@H]2OCC(=O)[C@H]21)C1CCCCC1)c1ccc(-c2ccnnc2)s1 [Example 8, N-((S)-2-((3aS,6S,6aS)-6-chloro-3-oxotetrahydro-2H-furo[3,2-b]pyrrol-4(5H)-yl)-1-cyclohexyl-2-oxoethyl)-5-(pyridazin-4-yl)thiophene-2-carboxamide] |
| 3.8 | 146 | 71 | 46.1 | 0.53 | 24.6 | poor | good | extremely high | 38 | O=C(N[C@H](C(=O)N1C[C@H](Cl)[C@H]2OCC(=O)[C@H]21)C1CCCCC1)c1cccc(-c2cn[nH]c2)c1 [Example C1, N-((S)-2-((3aS,6S,6aS)-6-chloro-3-oxotetrahydro-2H-furo[3,2-b]pyrrol-4(5H)-yl)-1-cyclohexyl-2-oxoethyl)3-(1H-pyrazol-4-yl)benzamide, reference compound] |
| 4.7 | 56 | 28 | 1.3 | 5.37 | 7.03 | moderate | good | intermediate/low | 12 | O=C(N[C@H](C(=O)N1C[C@H](Cl)[C@H]2OCC(=O)[C@H]21)C1CCCCC1)c1ccc(-c2ccncn2)s1 [Example 7, N-((S)-2-((3aS,6S,6aS)-6-chloro-3-oxotetrahydro-2H-furo[3,2-b]pyrrol-4(5H)-yl)-1-cyclohexyl-2-oxoethyl)-5-(pyrimidin-4-yl)thiophene-2-carboxamide] |

| SMILES | Selectivity Ki(hCatS)/Ki(hCatK) (human cathepsin S (CatS)) | Ki (human cathepsin S (CatS)) [nM] | inhibition at 31.6 µM (human cathepsin L (CatL)) [%] | efflux ratio at 120 min, 10 μM [1] | Papp A→B at 120 min, 10 μM [1] [×10⁻⁶ cm/s] | Papp B→A at 120 min, 10 μM [1] [×10⁻⁶ cm/s] | A to B permeability (in words) (Caco-2 cells) | B to A permeability (in words) (Caco-2 cells) | efflux ratio (ER) (in words) (Caco-2 cells) | Ki (human cathepsin K (CatK)) [nM] |
| --- | --- | --- | --- | --- | --- | --- | --- | --- | --- | --- |
| O=C(N[C@H](C(=O)N1C[C@H](Cl)[C@H]2OCC(=O)[C@H]21)C1CCCCC1)c1ccc(-c2cncnc2)s1 [Example 5, N-((S)-2-((3aS,6S,6aS)-6-chloro-3-oxotetrahydro-2H-furo[3,2-b]pyrrol-4(5H)-yl)-1-cyclohexyl-2-oxoethyl)-5-(pyrimidin-5-yl)thiophene-2-carboxamide] | 1.5 | 48 | 27 | 3.5 | 4.13 | 14.2 | moderate | good | intermediate/low | 31 |
